In general, Emax refers to the greatest response seen or fitted, relative to the assay's reference.

The values below come from patent US7160888B2, “[1,8]naphthyridin-2-ones and related compounds for the treatment of schizophrenia” (Warner Lambert Company LLC, priority 2003, dated 2007).

The target of the first test is D2 receptor (Homo sapiens, UniProt P14416). Put plainly: [3H]Thymidine uptake assay for D2 intrinsic activity. The format is cell-based. As to conditions: Table 1; test compound 1 μM; 1 μM Quinpirole = 100% intrinsic activity.
D2 receptor, sequence (P14416 whole entry): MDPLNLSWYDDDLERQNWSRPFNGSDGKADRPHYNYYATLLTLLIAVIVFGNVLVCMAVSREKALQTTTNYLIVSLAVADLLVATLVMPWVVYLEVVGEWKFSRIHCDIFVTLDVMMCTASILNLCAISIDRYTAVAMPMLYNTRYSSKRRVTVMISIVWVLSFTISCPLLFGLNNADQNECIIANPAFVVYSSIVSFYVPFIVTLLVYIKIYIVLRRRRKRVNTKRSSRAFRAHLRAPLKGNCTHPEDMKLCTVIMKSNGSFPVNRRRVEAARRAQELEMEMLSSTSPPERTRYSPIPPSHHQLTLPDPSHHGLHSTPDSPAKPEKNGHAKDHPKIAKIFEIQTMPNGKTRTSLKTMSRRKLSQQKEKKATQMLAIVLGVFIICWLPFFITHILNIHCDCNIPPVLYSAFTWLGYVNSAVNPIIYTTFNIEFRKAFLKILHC
As to `Cc1cc(OCCCCN2CCN(c3cccc(Cl)c3Cl)CC2)nc2c1CCC(=O)N2` [Example E9, 7-{4-[4-(2,3-Dichloro-phenyl)-piperazin-1-yl]-butoxy}-5-methyl-3,4-dihydro-1H-[1,8]naphthyridin-2-one], the maximal effect (Emax) at 1 µM was 34%.

Turning to `Cc1cc(OCCCCN2CCN(c3cccc4ccccc34)CC2)nc2c1CCC(=O)N2` [Example E10, 5-Methyl-7-[4-(4-naphthalen-1-yl-piperazin-1-yl)-butoxy]-3,4-dihydro-1H-[1,8]naphthyridin-2-one], the Emax at 1 µM is 31%.

Regarding `Cc1cc(OCCCCN2CCN(c3cccc4c3CCCC4)CC2)nc2c1CCC(=O)N2` [Example E11, 5-Methyl-7-{4-[4-(5,6,7,8-tetrahydro-naphthalen-1-yl)-piperazin-1-yl]-butoxy}-3,4-dihydro-1H-[1,8]naphthyridin-2-one], the Emax at 1 µM stood at 19%.

In turn, `Cc1cc(OCCCCN2CCN(c3cccc4c3CCC4)CC2)nc2c1CCC(=O)N2` [Example E12, 7-[4-(4-Indan-4-yl-piperazin-1-yl)-butoxy]-5-methyl-3,4-dihydro-1H-[1,8]naphthyridin-2-one] returned an Emax at 1 µM of 39%.

As to `O=C1CCc2c(C(F)(F)F)cc(OCCCCN3CCN(c4cccc5c4CCC5)CC3)nc2N1` [Example E13, 7-[4-(4-Indan-4-yl-piperazin-1-yl)-butoxy]-5-trifluoromethyl-3,4-dihydro-1H-[1,8]naphthyridin-2-one], the Emax at 1 µM is 11%.

Compound `O=C1CCc2c(C(F)(F)F)cc(OCCCCN3CCN(c4cccc5ccccc45)CC3)nc2N1` [Example E14, 7-[4-(4-Naphthalen-1-yl-piperazin-1-yl)-butoxy]-5-trifluoromethyl-3,4-dihydro-1H-[1,8]naphthyridin-2-one] showed an Emax at 1 µM of 36%.

With `O=C1CCc2c(C(F)(F)F)cc(OCCCCN3CCN(c4cccc5c4CCCC5)CC3)nc2N1` [Example E15, 7-{4-[4-(5,6,7,8-Tetrahydro-naphthalen-1-yl)-piperazin-1-yl]-butoxy}-5-trifluoromethyl-3,4-dihydro-1H-[1,8]naphthyridin-2-one], the Emax at 1 µM came to 20%.

With `O=C1NCc2ccc(OCCCCN3CCN(c4cccc5c4CCC5)CC3)nc2N1` [Example F3, 7-[4-(4-Indan-4-yl-piperazin-1-yl)-butoxy]-3,4-dihydro-1H-pyrido[2,3-d]pyrimidin-2-one], the Emax at 1 µM was found to be 15%.

In turn, `O=C1NCc2ccc(OCCCCN3CCN(c4cccc5c4CCCC5)CC3)nc2N1` [Example F4, 7-{4-[4-(5,6,7,8-Tetrahydro-naphthalen-1-yl)-piperazin-1-yl]-butoxy}-3,4-dihydro-1H-pyrido[2,3-d]pyrimidin-2-one] yielded an Emax at 1 µM of 23%.

In turn, `O=C1NCc2ccc(OCCCCN3CCN(c4cccc5ccc(F)cc45)CC3)nc2N1` [Example F5, 7-{4-[4-(7-Fluoro-naphthalen-1-yl)-piperazin-1-yl]-butoxy}-3,4-dihydro-1H-pyrido[2,3-d]pyrimidin-2-one] yielded an Emax at 1 µM of 32%.

The compound `N#Cc1ccc2cccc(N3CCN(CCCCOc4ccc5c(n4)NC(=O)NC5)CC3)c2c1` [Example F6, 8-{4-[4-(2-Oxo-1,2,3,4-tetrahydro-pyrido[2,3-d]pyrimidin-7-yloxy)-butyl]-piperazin-1-yl}-naphthalene-2-carbonitrile] showed an Emax at 1 µM of 37%.

Take `CN1Cc2ccc(OCCCCN3CCN(c4cccc(Cl)c4Cl)CC3)nc2NC1=O` [Example F7, 7-{4-[4-(2,3-Dichloro-phenyl)-piperazin-1-yl]-butoxy}-3-methyl-3,4-dihydro-1H-pyrido[2,3-d]pyrimidin-2-one]: the Emax at 1 µM came out at 11%.

The compound `CN1Cc2ccc(OCCCCN3CCN(c4cccc5ccccc45)CC3)nc2NC1=O` [Example F8, 3-Methyl-7-[4-(4-naphthalen-1-yl-piperazin-1-yl)-butoxy]-3,4-dihydro-1H-pyrido[2,3-d]pyrimidin-2-one] registered an Emax at 1 µM of 15%.

`CC1(C)OC(=O)Nc2nc(CCCCCN3CCN(c4cccc(Cl)c4Cl)CC3)ccc21` [Example F9, 7-{5-[4-(2,3-Dichloro-phenyl)-piperazin-1-yl]-pentyl}-4,4-dimethyl-1,4-dihydro-pyrido[2,3-d][1,3]oxazin-2-one] showed an Emax at 1 µM of 11%.

Take `O=C1COc2ccc(CCCCCN3CCN(c4cccc(Cl)c4Cl)CC3)nc2N1` [Example G1, 6-{5-[4-(2,3-Dichloro-phenyl)-piperazin-1-yl]-pentyl}-4H-pyrido[3,2-b][1,4]oxazin-3-one]: the Emax at 1 µM worked out at 27%.

In the case of `O=C1COc2ccc(CCCCCN3CCN(c4cccc5c4CCCC5)CC3)nc2N1` [Example G2, 6-{5-[4-(5,6,7,8-Tetrahydro-naphthalen-1-yl)-piperazin-1-yl]-pentyl}-4H-pyrido[3,2-b][1,4]oxazin-3-one], the Emax at 1 µM was determined as 6%.

Regarding `O=C1COc2ccc(OCCCCN3CCN(c4cccc(Cl)c4Cl)CC3)nc2N1` [Example G3, 6-{4-[4-(2,3-Dichloro-phenyl)-piperazin-1-yl]-butoxy}-4H-pyrido[3,2-b][1,4]oxazin-3-one], the Emax at 1 µM was 25%.

`CC(C)Oc1ccccc1N1CCN(CCCCOc2ncc3ccc(=O)[nH]c3n2)CC1` [Example H2, 2-{4-[4-(2-Isopropoxy-phenyl)-piperazin-1-yl]-butoxy}-8H-pyrido[2,3-d]pyrimidin-7-one]: the maximum response (Emax) at 1 µM is 22%.

The compound `O=c1ccc2cnc(OCCCCN3CCN(c4cccc5c4CCC5)CC3)nc2[nH]1` [Example H3, 2-[4-(4-Indan-4-yl-piperazin-1-yl)-butoxy]-8H-pyrido[2,3-d]pyrimidin-7-one] gave a maximal effect (Emax) at 1 µM of 25%.

The test is the same for the next values; noted with them: Table 2; test compound 1 μM; 1 μM Quinpirole = 100% intrinsic activity.
Compound `O=c1ccc2cnc(OCCCCN3CCN(c4cccc5c4OCCO5)CC3)nc2[nH]1` [Example G1′, 2-{4-[4-(2,3-Dihydro-benzo[1,4]dioxin-5-yl)-piperazin-1-yl]-butoxy}-8H-pyrido[2,3-d]pyrimidin-7-one] yielded an Emax at 1 µM of 20%.

In turn, `O=c1ccc2cnc(OCCCCN3CCN(c4cccc5c4OCCC5)CC3)nc2[nH]1` [Example G2′, 2-[4-(4-Chroman-8-yl-piperazin-1-yl)-butoxy]-8H-pyrido[2,3-d]pyrimidin-7-one] returned an Emax at 1 µM of 21%.

In turn, `O=c1ccc2cnc(OCCCCN3CCN(c4cccc5cccnc45)CC3)nc2[nH]1` [Example G3′, 2-[4-(4-Quinolin-8-yl-piperazin-1-yl)-butoxy]-8H-pyrido[2,3-d]pyrimidin-7-one] returned an Emax at 1 µM of 28%.

`O=c1ccc2cnc(OCCCCN3CCN(c4cccc5c4OCC5)CC3)nc2[nH]1` [Example G4′, 2-{4-[4-(2,3-Dihydro-benzofuran-7-yl)-piperazin-1-yl]-butoxy}-8H-pyrido[2,3-d]pyrimidin-7-one] showed a maximal effect (Emax) at 1 µM of 13%.

The compound `O=c1ccc2cnc(OCCCCN3CCN(c4cccc5c4OCCCO5)CC3)nc2[nH]1` [Example G5′, 2-{4-[4-(3,4-Dihydro-2H-benzo[b][1,4]dioxepin-6-yl)-piperazin-1-yl]-butoxy}-8H-pyrido[2,3-d]pyrimidin-7-one] came in with a maximal response (Emax) at 1 µM of 7%.

In the case of `CC1(C)CCc2cccc(N3CCN(CCCCOc4ncc5ccc(=O)[nH]c5n4)CC3)c2O1` [Example G6′, 2-{4-[4-(2,2-Dimethyl-chroman-8-yl)-piperazin-1-yl]-butoxy}-8H-pyrido[2,3-d]pyrimidin-7-one], the Emax at 1 µM was 17%.

`O=c1ccc2cnc(OCCCCN3CCN(c4cccc5c4OC(F)(F)O5)CC3)nc2[nH]1` [Example G7′, 2-{4-[4-(2,2-Difluoro-benzo[1,3]dioxol-4-yl)-piperazin-1-yl]-butoxy}-8H-pyrido[2,3-d]pyrimidin-7-one] registered an Emax at 1 µM of 38%.

The compound `CC1(C)Cc2cccc(N3CCN(CCCCOc4ncc5ccc(=O)[nH]c5n4)CC3)c2O1` [Example G8′, 2-{4-[4-(2,2-Dimethyl-2,3-dihydro-benzofuran-7-yl)-piperazin-1-yl]-butoxy}-8H-pyrido[2,3-d]pyrimidin-7-one] had an Emax at 1 µM of 32%.

`Cc1ccc2cccc(N3CCN(CCCCOc4ncc5ccc(=O)[nH]c5n4)CC3)c2n1` [Example G9′, 2-{4-[4-(2-Methyl-quinolin-8-yl)-piperazin-1-yl]-butoxy}-8H-pyrido[2,3-d]pyrimidin-7-one] came in with a maximal response (Emax) at 1 µM of 21%.

The compound `Cc1nc(OCCCCN2CCN(c3cccc4c3OCCO4)CC2)nc2[nH]c(=O)ccc12` [Example G10′, 2-{4-[4-(2,3-Dihydro-benzo[1,4]dioxin-5-yl)-piperazin-1-yl]-butoxy}-4-methyl-8H-pyrido[2,3-d]pyrimidin-7-one] registered a maximal response (Emax) at 1 µM of 18%.

`Cc1nc(OCCCCN2CCN(c3cccc4c3OCC4)CC2)nc2[nH]c(=O)ccc12` [Example G11′, 2-{4-[4-(2,3-Dihydro-benzofuran-7-yl)-piperazin-1-yl]-butoxy}-4-methyl-8H-pyrido[2,3-d]pyrimidin-7-one] gave an Emax at 1 µM of 39%.

Consider `Cc1nc(OCCCCN2CCN(c3cccc4ccoc34)CC2)nc2[nH]c(=O)ccc12` [Example G12′, 2-[4-(4-Benzofuran-7-yl-piperazin-1-yl)-butoxy]-4-methyl-8H-pyrido[2,3-d]pyrimidin-7-one], for which the Emax at 1 µM is 36%.

For the compound `Cc1nc(OCCCCN2CCN(c3cccc4c3NC(=O)CC4)CC2)nc2[nH]c(=O)ccc12` [Example G14′, 4-Methyl-2-{4-[4-(2-oxo-1,2,3,4-tetrahydro-quinolin-8-yl)-piperazin-1-yl]-butoxy}-8H-pyrido[2,3-d]pyrimidin-7-one], the Emax at 1 µM came out at 44%.

Regarding `Cc1nc(OCCCCN2CCN(c3cccc4cccnc34)CC2)nc2[nH]c(=O)ccc12` [Example G15′, 4-Methyl-2-[4-(4-quinolin-8-yl-piperazin-1-yl)-butoxy]-8H-pyrido[2,3-d]pyrimidin-7-one], the Emax at 1 µM worked out at 41%.

For the compound `O=C1CCc2cnc(OCCCCN3CCN(c4cccc5c4OCCC5)CC3)cc2N1` [Example H1′, 7-[4-(4-Chroman-8-yl-piperazin-1-yl)-butoxy]-3,4-dihydro-1H-[1,6]naphthyridin-2-one], the Emax at 1 µM was determined as 22%.

Compound `O=C1CCc2cnc(OCCCCN3CCN(c4cccc5c4OCC5)CC3)cc2N1` [Example H2′, 7-{4-[4-(2,3-Dihydro-benzofuran-7-yl)-piperazin-1-yl]-butoxy}-3,4-dihydro-1H-[1,6]naphthyridin-2-one] displayed a maximal response (Emax) at 1 µM of 15%.
